Results from PubChem BioAssay (NCI).
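The compound was tested at five concentrations on cells cultured in 96-well plates, with a 48-hour exposure period. TGI: total growth inhibition.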

Key:
Assay in all cases: inhibition of tumour cell growth, NCI panel, 48 h
[1] = test system: 786-0 renal
[2] = test system: NCI-H23 lung
[3] = test system: CCRF-CEM leukemia
[4] = test system: A498 renal
[5] = test system: M14 melanoma
[6] = test system: OVCAR-4 ovarian
[7] = test system: SK-MEL-2 melanoma
[8] = test system: UO-31 renal
[9] = test system: DLD-1 colon
[10] = test system: SK-MEL-28 melanoma
[11] = test system: RXF 393 renal
[12] = test system: UACC-257 melanoma
[13] = test system: NCI-H226 lung
[14] = test system: SK-MEL-5 melanoma
[15] = test system: HOP-92 NSCLC
[16] = test system: NCI-H460 lung
[17] = test system: CAKI-1 renal
[18] = test system: OVCAR-3 ovarian
[19] = test system: HCT-116 colon
[20] = test system: SW-620 colon
[21] = test system: MOLT-4 leukemia
[22] = test system: LOX IMVI melanoma
[23] = test system: SNB-19 CNS
[24] = test system: HCT-15 colon
[25] = test system: HCC-2998 colon
[26] = test system: TK-10 renal
[27] = test system: M19-MEL melanoma
[28] = test system: SF-268 CNS
[29] = test system: ACHN renal
[30] = test system: SF-539 CNS
[31] = test system: UACC-62 melanoma
[32] = test system: EKVX NSCLC
[33] = test system: DMS 114 small cell lung
[34] = test system: SNB-75 CNS
[35] = test system: SK-OV-3 ovarian
[36] = test system: OVCAR-5 ovarian
[37] = test system: IGROV1 ovarian
[38] = test system: LXFL 529 NSCLC
[39] = test system: COLO 205 colon
[40] = test system: A549 NSCLC
[41] = test system: NCI-H522 lung
[42] = test system: K-562 leukemia
[43] = test system: MALME-3M melanoma
[44] = test system: SF-295 CNS
[45] = test system: KM12 colon
[46] = test system: HL-60(TB) leukemia
[47] = test system: HT29 colon
[48] = test system: KM20L2 colon
[49] = test system: DMS 273 small cell lung
[50] = test system: HOP-62 NSCLC
[51] = test system: OVCAR-8 ovarian
[52] = test system: SR leukemia
[53] = test system: HOP-18 NSCLC
[54] = test system: SNB-78 CNS
[55] = test system: SN12C renal
[56] = test system: U251 CNS

O=C(Cc1nc2ccc([N+](=O)[O-])cc2[nH]c1=O)C(=O)Nc1ccccc1[N+](=O)[O-]
TGI [1]: > 100 µM
TGI [2]: > 100 µM
TGI [3]: > 100 µM
TGI [4]: > 100 µM
TGI [5]: > 100 µM
TGI [6]: > 100 µM
TGI [7]: > 100 µM
TGI [8]: > 100 µM
TGI [9]: > 100 µM
TGI [10]: > 100 µM
TGI [11]: > 100 µM
TGI [12]: > 100 µM
TGI [13]: > 100 µM
TGI [14]: > 100 µM
TGI [15]: > 100 µM
TGI [16]: > 100 µM
TGI [17]: > 100 µM
TGI [18]: > 100 µM
TGI [19]: > 100 µM
TGI [20]: > 100 µM
TGI [21]: > 100 µM
TGI [22]: > 100 µM
TGI [23]: > 100 µM
TGI [24]: > 100 µM
TGI [25]: > 100 µM
TGI [26]: > 100 µM
TGI [27]: > 100 µM
TGI [28]: > 100 µM
TGI [29]: > 100 µM
TGI [30]: > 100 µM
TGI [31]: > 100 µM
TGI [32]: > 100 µM
TGI [33]: > 100 µM
TGI [34]: > 100 µM
TGI [35]: > 100 µM
TGI [36]: > 100 µM
TGI [37]: > 100 µM
TGI [38]: > 100 µM
TGI [39]: > 100 µM
TGI [40]: > 100 µM
TGI [41]: > 100 µM
TGI [42]: > 100 µM
TGI [43]: > 100 µM
TGI [44]: > 100 µM
TGI [45]: > 100 µM
TGI [46]: > 100 µM
TGI [47]: > 100 µM
TGI [48]: > 100 µM
TGI [49]: > 100 µM

COc1cc(C2C(=O)C(Cl)N2Nc2nc(C)cc(=O)[nH]2)cc(OC)c1OC (stereo not drawn)
TGI [2]: 50.3 µM
TGI [5]: 26.5 µM
TGI [6]: 56.2 µM
TGI [7]: 25.2 µM
TGI [8]: 79.1 µM
TGI [10]: 49.6 µM
TGI [50]: > 100 µM
TGI [11]: 26.4 µM
TGI [51]: > 100 µM
TGI [12]: > 100 µM
TGI [52]: 77.1 µM
TGI [13]: 62.6 µM
TGI [14]: 26.5 µM
TGI [15]: 37.3 µM
TGI [53]: 28.1 µM
TGI [16]: 21.9 µM
TGI [54]: 65.8 µM
TGI [18]: 45.1 µM
TGI [19]: 49.7 µM
TGI [20]: > 100 µM
TGI [21]: 39.9 µM
TGI [22]: 27.5 µM
TGI [23]: > 100 µM
TGI [24]: 31.9 µM
TGI [25]: 33 µM
TGI [26]: > 100 µM
TGI [55]: 53.1 µM
TGI [27]: > 100 µM
TGI [28]: > 100 µM
TGI [29]: 68.5 µM
TGI [30]: 35.1 µM
TGI [32]: > 100 µM
TGI [34]: 43.3 µM
TGI [36]: > 100 µM
TGI [37]: 35 µM
TGI [38]: 29.7 µM
TGI [40]: > 100 µM
TGI [42]: 41.1 µM
TGI [45]: 76.9 µM
TGI [56]: 36.3 µM
TGI [46]: 33.7 µM
TGI [47]: 66.2 µM
TGI [48]: 66.5 µM
TGI [49]: 24.2 µM
